One data set deals with CoV229E. Put plainly: Anti-Coronavirus 229E cytoprotection assay, MRC-5. The format is cell-based. Particulars: Human coronavirus 229E, MRC5, 6 days, XTT.
The test system of data set [1] is MCF7 wild-type cell lines. Put plainly: MCF7 growth inhibition assay (Cell Titre Glo 2.0). The format is cell-based. The settings on record: Homo sapiens, 120 hours, read-out: MCF-7 IC50. The procedure:
The growth inhibition properties of inhibitors on MCF7 wild-type cell lines were evaluated using the Cell Titre Glo 2.0 cell viability reagent. The assay utilized 384-well black clear bottom plates with 20 μl of MCF7 wild-type cell suspension mixed with reference/test compounds and 20 μl of Cell Titre Glo 2.0 reagent. Cells were seeded at a density of 1000 cells/well in DMEM High Glucose culture media+10% Fetal Bovine Serum (FBS). Staurosporine and Camptothecin served as positive controls for confirming cytotoxicity at a concentration of 30 μM, and vehicle control of 1% DMSO was used to standardize conditions across all test points. The assay and culture media both contained 1% DMSO. […] The incubation period for the assay was set at 120 hours, after which growth inhibition was assessed. Using a multi-mode reader, the assay readout was based on luminescence measured in Relative Light Units (RLUs). The viability luminescence signal was monitored continually from the same wells over an extended period, allowing for detailed analysis of cell viability. […]
Cells were maintained and seeded in 384 […] plates, maintaining 1000 cells/well. […] This was followed by the addition of CTG reagent as per the kit's instruction protocol for 30 minutes and RLU data to be recorded. Post plate read data to be analyzed using GraphPad Prism for software IC50 value generation. […]

A short description of data set [2]: XTT cell viability assay, Huh-luc/neo-ET. Format: cell-based. The settings on record: human, Huh-luc/neo-ET cells, read-out: HCV 1b - TC50. As for the experimental part: (§1) Twenty-four hours after seeding the cells, the cell culture supernatant was removed from each well and replaced with 175 μL fresh complete medium minus G418. Test compounds were evaluated at a high-test concentration of 10 μM and five serial half-logarithmic dilutions in three biological replicates. In three biological replicates, Sofosbuvir was evaluated in parallel at a high-test concentration of 1 μM and five serial half-logarithmic dilutions. Compounds were first serially diluted in DMSO to 400× of each final in-well concentration. An intermediate 8× solution was prepared in a complete medium and then added to the cells in a volume of 25 μL per well. A complete medium containing an equal percentage of DMSO (v/v) was added to vehicle-treated control cells. The final DMSO concentration was 0.25% (v/v) for all samples. The cells were incubated for an additional 72 hours at 37° C./5% CO2, then HCV replication was measured by luciferase activity and cell viability was assessed in parallel using an XTT colorimetric assay.
(§2) Huh-luc/neo-ET cell viability was measured at 72 hours after treatment using the tetrazolium dye XTT (2,3-bis(2-methoxy-4-nitro-5-sulfophenyl)-5[(phenylamino)carbonyl]-2H-tetrazolium hydroxide). Mitochondrial enzymes of metabolically active cells metabolize XTT-tetrazolium to a soluble formazan product. XTT solution was prepared fresh at 1 mg/mL in DMEM. Phenazine methosulfate (PMS) solution was prepared at 0.15 mg/mL in PBS and stored in the dark at −20° C. An XTT/PMS stock was prepared immediately before use by adding 40 μL of PMS per ml of XTT solution. Fifty microliters (50 μL) XTT/PMS were added per well, and the cells were incubated for 4 hours at 37° C. The cell culture plates were then sealed with adhesive plate sealers and shaken gently or inverted several times to mix the soluble formazan product. The formazan product was measured spectrophotometrically by absorbance at 450/650 nm on a Vmax plate reader (Molecular Devices). The raw data in Softmax Pro 5.4.2 software was imported into Microsoft Excel for further analysis. Data are presented as absorbance values (450/650 nm) or the percentage of viable cells relative to vehicle-treated control (mean+1−standard deviation, n=3 biological replicates from one independent experiment).
On the technique in general: Formazan colour is commonly taken as a measure of viable cells.

A short description of data set [3]: Toxicity XTT in MRC-5 (229E cytoprotection assay). The settings on record: human.
For a further data set, the system named is HCV 1b. Nature of the data set: microbe, parasite or virus in culture. Particulars: for HCV 1b - percent effect: @ 10 μM. Format: cell-based.
A further data set deals with Huh-luc/neo-ET cells. Nature of the data set: XTT cell viability assay, Huh-luc/neo-ET. The format is cell-based. Particulars: 72 hours, read-out: HCV 1b - TC50. As for the experimental part:
as §1, §2

In a further data set the test system is MRC-5 cells. Put plainly: Toxicity XTT in MRC-5 (229E cytoprotection assay). Particulars: read-out: CoV229E - TC50; MRC-5; XTT; 6 days.
The subject of another data set is Norovirus Norwalk Virus. Put plainly: Norwalk virus CPE assay, HG23 (Method 6). Format: cell-based. From the text: The antiviral assays were cell line based and consisted in transfecting each of the viruses tested in a compatible cell line. Upon infection and after drug treatment, viral survival and cell toxicity were reported from the readout of three different assays: cytopathic effect (CPE), viral yield reduction (VYR), or immunofluorescence (IF). A breakdown of the results obtained can be found in Table 3 in which EC50 values have been converted to account for variations in FBS concentrations across assays.
Compounds were tested in an assay medium containing 2% fetal bovine serum (FBS). Test compounds were added to cells prior to infection with virus at a multiplicity of infection (MOI) sufficient to induce visible cytopathic effect (CPE). […] Additionally, the EC90 was defined as the concentration required to achieve a 1 log10 reduction in viral titer. Dose-response curves depicting viral CPE (red line) and compound cytotoxicity (purple line) were generated to support these analyses.

The nature of data set [4]: Protein binding in FBS, rapid equilibrium dialysis (RED). Particulars: 10% FBS (text/footnote). Background: In equilibrium dialysis free small molecules cross a membrane that holds back macromolecules.

As usually defined, the EC50 is the concentration giving half of the maximal effect. Read a high EC50 as a less potent agent. In general, IC50 refers to the concentration needed to halve the response being measured.

A value given as a limit tells only on which side of the number the result lay.

In the case of `COc1ccc(-c2c(Cc3ccc(OCCN4CCCCC4)cc3)c3ccc(OC)cc3n2C)cc1` [MCAA-01], the EC50 in the data set with CoV229E came to 1.88 µM; with HCV 1b (Hepatitis C virus, Huh-luc/neo-ET replicon, 72 hours, luciferase) it was 3.61 µM. The IC50 in [1] is above 10 µM. Also, the CC50 at 72 h in data set [2] is above 10 µM. The compound further displayed a CC50 at 6 days in data set [3] above 5 µM.

For the compound `O=C(O)c1ccc(-c2c(CC3CCCC3)c3ccc(F)cc3n2Cc2ccc(OCCN3CCCCC3)cc2)cc1` [MCAA-02], the CC50 in the data set on Huh-luc/neo-ET cells was above 10 µM; in the data set on MRC-5 cells, above 5 µM.

As to `O=C(O)c1ccc(-c2c(CC3CCCC3)c3ccc(F)cc3n2Cc2ccc(OCCC3CCCCC3)cc2)cc1` [MCAA-03], the CC50 in the data set on Huh-luc/neo-ET cells was above 10 µM; in the data set with MRC-5 cells, 2.47 µM.

In the case of `Cc1c(-c2ccc(O)cc2)n(Cc2ccc(OCCC3CCCCC3)cc2)c2ccc(O)cc12` [MCAA-04], the CC50 in the data set on Huh-luc/neo-ET cells was above 10 µM; with MRC-5 cells it was 2.7 µM.

For `COc1ccc(-c2c(Cc3ccc(OCCC4CCCCC4)cc3)c3ccc(OC)cc3n2C)cc1` [MCAA-05], the CC50 in the data set with Huh-luc/neo-ET cells was above 10 µM; in the data set on MRC-5 cells, above 5 µM.

`Fc1ccc(-c2cc3sccc3n2Cc2ccc(OCCN3CCCCC3)cc2)cc1` [MCAA-06]: the CC50 is above 10 µM in the data set on Huh-luc/neo-ET cells and 1.53 µM in the data set on MRC-5 cells.

In the case of `Fc1ccc(-c2cc3sccc3n2Cc2ccc(OCCC3CCCCC3)cc2)cc1` [MCAA-07], the values for the CC50 with Huh-luc/neo-ET cells and in the data set on MRC-5 cells were above 10 µM and above 5 µM, respectively. Moreover, in the data set on HCV 1b, the “HCV 1b - percent effect” value is on record as 30% @ 10 μM.

As to `Nc1cccc2nc(-c3ccc(F)cc3)n(Cc3ccc(OCCN4CCCCC4)cc3)c12` [MCAA-08], the CC50 with Huh-luc/neo-ET cells is above 10 µM; in the data set on MRC-5 cells, above 5 µM.

With `Nc1cccc2nc(-c3ccc(F)cc3)n(Cc3ccc(OCCC4CCCCC4)cc3)c12` [MCAA-09], the CC50 in the data set with Huh-luc/neo-ET cells was above 10 µM; with MRC-5 cells, above 5 µM.

`Nc1cccc2c1nc(-c1ccc(F)cc1)n2Cc1ccc(OCCN2CCCCC2)cc1` [MCAA-10]: the CC50 with Huh-luc/neo-ET cells is above 10 µM; in the data set on MRC-5 cells it was above 5 µM.

As for `Nc1cccc2c1nc(-c1ccc(F)cc1)n2Cc1ccc(OCCC2CCCCC2)cc1` [MCAA-11], the CC50 was 5.82 µM in the data set on Huh-luc/neo-ET cells and above 5 µM with MRC-5 cells.

In the case of `O=[N+]([O-])c1cccc2nc(-c3ccc(F)cc3)n(Cc3ccc(OCCN4CCCCC4)cc3)c12` [MCAA-12], the CC50 with Huh-luc/neo-ET cells was above 10 µM; in the data set with MRC-5 cells it was above 5 µM.

On to `O=[N+]([O-])c1cccc2c1nc(-c1ccc(F)cc1)n2Cc1ccc(OCCN2CCCCC2)cc1` [MCAA-13], for which the CC50 in the data set on Huh-luc/neo-ET cells was above 10 µM; in the data set on MRC-5 cells it was above 5 µM.

Take `O=[N+]([O-])c1cccc2nc(-c3ccc(F)cc3)n(Cc3ccc(OCCC4CCCCC4)cc3)c12` [MCAA-14]: the CC50 in the data set with Huh-luc/neo-ET cells is above 10 µM; with MRC-5 cells it was above 5 µM. Besides, in the data set with HCV 1b, the “HCV 1b - percent effect” value was 34% @ 10 μM.

As for `O=[N+]([O-])c1cccc2c1nc(-c1ccc(F)cc1)n2Cc1ccc(OCCC2CCCCC2)cc1` [MCAA-15], the CC50 in the data set on Huh-luc/neo-ET cells is above 10 µM; with MRC-5 cells, above 5 µM. For the same compound, in the data set with HCV 1b, the “HCV 1b - percent effect” value is on record as 38% @ 10 μM.

On to `Cc1c(-c2ccc(O)cc2)n(Cc2ccc(OCCN3CCCCC3)cc2)c2ccc(O)cc12` [Pipendoxifene], for which the “percent effect printed in EC50 column” value in the data set with Norovirus Norwalk Virus (2% FBS, @ 5 μM) is given as 31% @. In the data set on Norovirus Norwalk Virus (@ 1.25 μM (concentration corrected for 2% FBS)), the “percent effect printed in Corrected EC50 column” value turned out to be 31% @ 1.25. In addition, the CC50 with MRC-5 cells was above 1 µM. The compound also yielded an unbound fraction in [4] of 5%.

As to `CCC(CC)COC(=O)[C@H](C)N[P@](=O)(OC[C@H]1O[C@@](C#N)(c2ccc3c(N)ncnn23)[C@H](O)[C@@H]1O)Oc1ccccc1` [Remdesivir, reference compound], in the data set with MRC-5 cells, the CC50 was above 1 µM.

With `CC(C)OC(=O)[C@H](C)N[P@](=O)(OC[C@H]1O[C@@H](n2ccc(=O)[nH]c2=O)[C@](C)(F)[C@@H]1O)Oc1ccccc1` [Sofosbuvir, reference compound], in the data set with Huh-luc/neo-ET cells, the CC50 is above 1 µM.
